Measurements as given in patent US20240050449A1, “Use of Acetyltanshinone IIA in Preparation of Medicament for Treating Lung Cancer and Medicament for Treating Lung Cancer” (UNIVERSITY OF MACAU, priority 2022, published 2024).
Entries after “also recorded” stand apart in the source; their conditions may differ.

Experiments:
Assay type in all cases: cell-based
[1] = test system: H358 cells; assay: MTT cell viability assay, H358 cells
Protocol: (§1) Cells were seeded at a density of 3×10^3 per well in 96-well plates, allowed to attach overnight, and treated with various concentrations of agent. After 72 h of treatment, 10 μL of MTT solution (5 mg/mL) was added to each well and cultured in the plate for 4 h. The crystallized formazan was dissolved in 100 μL of 10% (w/v) SDS and 0.01 mol/L HCl solution for 24 h, and then the value was read by spectrophotometry at 595 nm using a microplate reader.

[2] = target: T1, p70S6K (Homo sapiens, UniProt P23443); assay: Western blot, p70S6K protein levels in drug-resistant NSCLC cells; conditions: 48 h
T1 construct: endogenous in cells; host or cells: A549, H358, H1975, H1650 for the Western blots
T1 sequence (P23443 whole entry): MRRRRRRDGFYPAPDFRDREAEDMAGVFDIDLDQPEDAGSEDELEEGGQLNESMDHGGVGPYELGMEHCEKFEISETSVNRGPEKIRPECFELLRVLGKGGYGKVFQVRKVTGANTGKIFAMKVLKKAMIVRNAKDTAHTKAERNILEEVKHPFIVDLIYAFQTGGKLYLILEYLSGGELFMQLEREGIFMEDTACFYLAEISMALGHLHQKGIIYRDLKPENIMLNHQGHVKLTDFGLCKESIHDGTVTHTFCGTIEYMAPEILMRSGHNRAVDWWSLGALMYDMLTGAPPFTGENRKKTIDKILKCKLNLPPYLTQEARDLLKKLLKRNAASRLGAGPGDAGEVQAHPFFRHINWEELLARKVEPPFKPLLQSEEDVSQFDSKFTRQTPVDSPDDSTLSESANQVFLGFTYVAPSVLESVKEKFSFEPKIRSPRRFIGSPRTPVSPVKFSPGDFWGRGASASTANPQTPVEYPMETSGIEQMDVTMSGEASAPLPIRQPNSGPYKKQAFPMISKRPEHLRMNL
Protocol: (§2) Cells were washed once with PBS and frozen in RIPA lysis buffer containing protease and phosphatase inhibitors (Sigma-Aldrich) for 30 min. After sonication and centrifugation, the total protein concentration was determined by protein assay using Bio-Rad concentrated dye reagent (Bio-Rad). Equal amounts of protein ([…]) from each sample were separated by SDS-PAGE and electrotransferred to nitrocellulose membranes (GE Healthcare). Detection was performed on the membrane with a 1:1000 dilution of specific primary antibody followed by incubation with a 1:2000 dilution of the HRP conjugated secondary antibody. Finally, immunoreactivity is detected with a chemiluminescent substrate (Clarity Western ECL substrate; Bio-Rad). EGFR (#4267S), MET (#8198S), p-Akt (#9271L), akt (#9272S), p-mTOR (#5536S), mTOR (#2983S), p-p70S6K (#9234S), p70S6K (#2708S), p-S6RP (#4857S), S6RP (#2217S), p-4E-BP1 (#9455S) antibodies. 4E-BP1 (#9644S), p53 (#2527S), p21 waf1/Cip1 (#2947S), survivin (#2808S), cyclin B1 (#12231S), cyclin D3 (#2936S) and GAPDH (#2118S) were purchased from Cell Signaling Technology. Aurora A (#ab13824) and PLK1 (#ab189139) antibodies were from Abcam.

[3] = test system: drug-resistant NSCLC cells (A549, H358, H1975, H1650); assay: MTT assay, summary over all four cell lines
Protocol: as §1

[4] = test system: A549 and H1650 cells; assay: Cell cycle analysis (PI staining, flow cytometer); conditions: 1 or 2 μM, 48 h
Protocol: Cell cycle analysis was performed using standard flow cytometer protocols. Briefly, after ATA treatment, cells were harvested, washed with 1×PBS, and then fixed with 70% pre-chilled ethanol at 4° C. for 30 min. Fixed cells were washed twice with 1×PBS, resuspended in 0.5 mL of 1×PBS containing 50 μg/mL propidium iodide (PI) and 100 μg/mL RNase A (ribonuclease A) for 30 min at 37° C. in the dark. The cell cycle was then analyzed on a BD Accuri C6 flow cytometer (BD Biosciences, CA). Data from the flow cytometer were analyzed using FlowJo software (Tree Star).

[5] = test system: H1650 cells; assay: MTT cell viability assay, H1650 cells
Protocol: as §1

[6] = test system: EGFR; assay: Western blot, EGFR protein levels in drug-resistant NSCLC cells
Protocol: as §2, with “EGFR (#4267S), MET (#8198S), p-Akt (#9271L), akt (#9272S), p-mTOR (#5536S), mTOR (#2983S), p-p70S6K (#9234S), p70S6K (#2708S), p-S6RP (#4857S), S6RP (#2217S), p-4E-BP1 (#9455S) antibodies. 4E-BP1 (#9644S), p53 (#2527S), p21 waf1/Cip1 (#2947S), survivin (#2808S), cyclin B1 (#12231S), cyclin D3 (#2936S) and GAPDH (#2118S) were purchased from Cell Signaling Technology.” left out

## CC(=O)Oc1c(OC(C)=O)c2c(C)coc2c2ccc3c(c12)CCCC3(C)C [ATA, acetyltanshinone IIA]
[1]
  IC50 ratio of Erlotinib/ATA: 13.7
[1]; MTT, 72 h
  IC50: 1.57 ± 0.1 µM
[2]; A549, H358, H1975, H1650 cells, 1 or 2 μM
  levels of p70S6K protein and its phosphorylated forms: greatly reduced
[2]; A549 and H1650 cells, 2 μM
  levels of p70S6K: significantly decreased
[3]; A549, H358, H1975, H1650, MTT, 72 h, read-out: IC50 values, range over the four cell lines
  IC50: 1.3 to 1.8 µM
[3]; four cell lines
  IC50 of ATA lower than that of Erlotinib: 6-17 fold
[4]
  proportion of cells in the G1 phase: increased
  proportion of cells in the S phase: decreased
[5]
  IC50 ratio of Erlotinib/ATA: 17.3
[5]; ATA 2 μM, 72 h, MTT
  growth inhibition compared with other agents: significantly higher than all three inhibitors; also recorded: greater growth inhibition than combination therapy with Erlotinib and MLN8237
[5]; MTT, 72 h
  IC50: 1.28 ± 0.29 µM
[6]; A549 cells, 2 μM, 72 or 96 h
  decrease of EGFR protein levels: ≤ 90%
[6]; H358, H1975 and H1650 cells, 1 or 2 μM, 48 h
  reduction of EGFR protein levels: 60-70%
